Data reported in PMC12520456, “Regulating Enzyme Activity via Microaggregates Mediated by Phase Separation” (Advanced Science, 2025).
Non-standard residues stand in square brackets, D forms with d. Residues, ends and D or L forms follow the SMILES beside them.

Columns and labels:
Trypsin = Trypsin activity assay (BAEE); assay type: biochemical; conditions: Figure 2C
Description: Then, cells were co-incubated with Cy5-labeled proteins (trypsinCy5 and chymotrypsinCy5) and DPMD treated proteins Cy5 for 30 min. Subsequently, cells were washed thrice with PBS, fixed with 4% paraformaldehyde, and the nucleus was dyed with DAPI. Observations were performed using a confocal microscope (Olympus, FV3000). This experiment was repeated three independent times. The mean fluorescence intensity was measured using Image J software. The fluorescence values were calculated after background subtraction (fluorescence intensity of regions without cells).
3.8 Measurements of ThT fluorescence
The 0.5% (w/v) aqueous peptide solutions, enzyme solutions, and peptide-enzyme mixtures were supplemented with thioflavin T (ThT, 100 μM, Aladdin). ThT Fluorescence assay was measured on a Steady-state and lifetime Fluorescence Spectrometer (FLS1000). […]
and the product's absorbance at […] was dynamically and real-time monitored using a microplate […]
During the chymotrypsin activity assay, DPMD was incorporated into chymotrypsin. […] The reaction was carried out at 25 ℃, and the product's absorbance at 256 nm was dynamically and real-time monitored using a microplate reader. […]
NIH-3T3 cells were obtained from the National Collection of Authenticated Cell Cultures. […] Cell viability was evaluated by the CCK-8 assay (Dojindo) at 1-, 3-, 5-, and 7-days post-treatment. […]

[1] = tested on: postoperative pancreatic fistula (POPF); assay: Rat pancreatic common duct transection (lethal) POPF model; assay type: in vivo
Description: In order to challenge the efficacy of DPMD in emergency treatments for POPF, a lethal rat model of POPF was established through transection of the main pancreatic duct. After 8 h post‐surgical modeling, evidence of severe POPF was observed through the presence of leaky Chymotrypsin (Figure S11, Supporting Information). At this critical juncture, DPMD, LPMD or an equal volume normal saline solution were administered via syringe injection into the abdominal cavity near the pancreas. […] Consequently, all […] rats subjected to the mock treatment succumbed to three days post‐surgical modeling, while LPMD only extended the median survival from 2 days in Ctrl to 3 days in LPMD (Figure 4D). […] Furthermore, both DPMD and LPMD treatments decreased inflammation markers including TNF‐α, IL‐6, IL‐8, IL‐33 sST2, CRP, HMGB1, MPO, PAF, PCT, PGE2 and SAA present in rat serum (Figure 4G).
Without damaging the surrounding pancreatic tissue and capillaries, a transverse incision on the pancreatic splenic duct was performed using micro-scissors. Successful modelling is confirmed by observing external leakage of pancreatic fluid. Place a self-made drainage tube into the rat's abdominal cavity with its outlet positioned at the site of the transected splenic duct, then exit through the abdominal wall and fix it there.
3.14 Construction of rat pancreatic common duct transection model
Animal studies were performed according to the protocols approved by the Institution Guidelines and were approved by the Laboratory Animal Center of Xijing Hospital of The Fourth Military Medical University (No. IACUC-20220308). ALL rats were purchased from the Laboratory Animal Center of The Fourth Military Medical University. The rats were housed under standard specific pathogen-free conditions with a 12h–12h light–dark cycle.
The preoperative preparation and postoperative care for the rat model were consistent with those of the rat pancreatic splenic duct transection pancreatic fistula model, except for the transecting of the pancreatic common duct of the pancreas in modeling. A custom-made drainage tube outlet was positioned around the area where the pancreatic common duct was transected.
3.15 Evaluation of the effect of DPMD on pancreatic duct transection model The male SD rats were randomly assigned to six rats in each group. Prepare a pancreatic duct transection model with a pancreatic fistula and apply 0.3 mL of normal saline, 0.3 ml of DPMD, and 0.3 mL of LPMD at the incision site. After 3days, administer 3 mL of MeO-Succ-Arg-Pro-Tyr-AMO solution (ATT Bioquest) to the pancreatic stump and surrounding tissues for fluorescence imaging in real-time under dark field conditions while using an API filter. Blood and ascitic fluid

CC[C@@H](C)[C@@H](NC(=O)[C@@H](CCC(N)=O)NC(=O)[C@H](NC(=O)[C@@H](Cc1ccc(O)cc1)NC(=O)CNC(=O)[C@@H](CC(C)C)NC(=O)[C@H](NC(=O)[C@@H](CO)NC(=O)CNC(=O)[C@@H](C)NC(=O)[C@@H](CC(=O)O)NC(=O)[C@@H](C)NC(=O)[C@@H](CCCNC(=N)N)NC(=O)[C@@H](C)NC(=O)[C@@H](CC(=O)O)NC(=O)[C@@H](C)NC(=O)[C@@H](CCCNC(=N)N)NC(=O)[C@@H](C)NC(=O)[C@@H](CC(=O)O)NC(=O)[C@@H](C)NC(=O)[C@@H](CCCNC(=N)N)NC(=O)[C@@H](C)NC(=O)[C@@H](CC(=O)O)NC(=O)[C@@H](C)NC(=O)[C@H](N)CCCNC(=N)N)C(C)C)[C@H](C)CC)C(=O)N[C@H](CCCNC(=N)N)C(=O)O [DPMD, Ac‐(D‐RADA)4‐CONH2] (H-[dR][dA][dD][dA][dR][dA][dD][dA][dR][dA][dD][dA][dR][dA][dD][dA]G[dS][dV][dL]G[dY][dI][dQ][dI][dR]-OH; N-terminus and C-terminus assumed)
suppression of enzymatic activity of Trypsin (Trypsin): almost complete extent | chymotrypsin leakage by fluorescence imaging ([1]; 3 day after treatment, laparotomy, Figure 4B): halted the leakage almost entirely | ascitic and serum amylase and lipase levels ([1]; compared to mock treatment, Figure 4C): statistically significant reduction | deaths during the seven-day observation period ([1]; injection into abdominal cavity 8 h after modeling, all eight mock-treated rats died within three days): none of the rats treated with DPMD died | H&E staining of pancreatic tissue ([1]; three days after surgery, Figure 4E): reduced edema and inflammatory cell infiltration | serum inflammation markers (TNF-α, IL-6, IL-8, IL-33, sST2, CRP, HMGB1, MPO, PAF, PCT, PGE2, SAA) ([1]; within 7 days after surgery, Figure 4G): decreased
